Test results as given in article PMC10914734 (Signal Transduction and Targeted Therapy, 2024).
Read-outs that look alike come from different tables or passages of the source.

Experiments:
B.1.617.2 (Delta) [1] = test: microbe, parasite or virus in culture; type: cell-based; settings: Severe acute respiratory syndrome coronavirus 2, HEK-293T, read-out: EC50, SARS-CoV-2 B.1.617.2 (Delta)
SARS-CoV-2 = test: Authentic virus inhibition assay, SARS-CoV-2 wild-type strain in Vero-E6 cells; type: cell-based; settings: Severe acute respiratory syndrome coronavirus 2, Vero C1008
HCoV-229E = test: microbe, parasite or virus in culture; type: cell-based; settings: Human coronavirus 229E, Huh-7, read-out: EC50, authentic HCoV-229E
B.1.617.2 (Delta) [2] = test: microbe, parasite or virus in culture; type: cell-based; settings: Severe acute respiratory syndrome coronavirus 2, Vero C1008, read-out: EC50, SARS-CoV-2 B.1.617.2 (Delta)
B.1.351 (Beta) = test: microbe, parasite or virus in culture; type: cell-based; settings: Severe acute respiratory syndrome coronavirus 2, Vero C1008, read-out: EC50, SARS-CoV-2 B.1.351 (Beta)
SARS-CoV-2 PsV = test: microbe, parasite or virus in culture; type: cell-based; settings: Severe acute respiratory syndrome coronavirus 2, 293T/ACE2, read-out: EC50, SARS-CoV-2 PsV
Pharmacokinetics in dogs = type: in vivo; settings: for AUC(0-t) / clearance / half-life / AUC(0-inf) / MRT inf / Cmax / Tmax / bioavailability: male, Beagle, dog, plasma; for AUC(0-inf): read-out: AUCINF_obs; for MRT inf: read-out: MRTINF_obs
Protocol: Three groups of male Beagle dogs weighing 9 to 12 kg (2 animals per group) were intravenously (1 mg/kg), subcutaneously (1 mg/kg) and orally (5 mg/kg) dosed 14a in a vehicle consisting of 5% dimethyl sulfoxide, 7.5% Kolliphor HS 15 and 87.5% saline (volume ratio). Serial blood samples were collected at 0.083, 0.25, 0.75, 2.0, 4.0, 6.0, 8.0 and 24.0 h for the intravenous and […] groups and 0.25, 0.5, 1.0, 2.0, 4.0, 6.0, 8.0 and 24.0 h for the oral group after dose administration. Two groups of male Beagle dogs weighing 9 to 12 kg (3 animals per group) were intravenously (1 mg/kg) and subcutaneously (1 mg/kg) dosed 14b in a vehicle consisting of 5% dimethyl sulfoxide, 5% ethanol, 40% polyethylene glycol 400 and 50% saline (volume ratio). Serial blood samples were collected at 0.083, 0.25, 0.50, 1.00, 2.00, 4.00, 8.00 and 24.0 h after dose administration. A group of 3 male Beagle dogs weighing 9 to 12 kg was administered an oral dose of 5 mg/kg 14b in a vehicle consisting of 5% dimethyl sulfoxide and 95% hydroxypropyl methyl cellulose solution (0.5% hydroxypropyl methyl cellulose in deionized water in weight ratio) (volume ratio). Serial blood samples were collected at 0.25, 0.50, 1.00, 2.00, 4.00, 8.00 and 24.0 h after dose administration. All blood samples were obtained by centrifugation and stored at -20 °C until analysis.
Plasma compound concentrations were obtained through HPLC-MS/MS, and the pharmacokinetics parameters were analyzed by Phoenix WinNonlin 7.0. The following parameters were determined: Cmax (maximal concentration of drug in plasma), AUClast or AUCINF_obs (area under the concentration curve from the time of dosing to the last measurable concentration or from the time of dosing to infinity, respectively). Tmax (time of maximum observed concentration), T1/2 (half-life of elimination), MRTINF_obs (mean residence time extrapolated to infinity for a substance administered by indicated dosing using observed last concentration), CL (total body clearance), Vss (volume of distribution at steady state) and F (absolute bioavailability, F = (AUCx × Di.v.)/( AUCi.v. × Dx) × 100%, where x is i.p., s.c. or p.o., and AUC is AUCINF_obs).The pharmacokinetic parameters were analyzed by Phoenix WinNonlin 7.0.

[3] = system: Huh-7, Vero-E6, RD and 293T-ACE2-TMPRSS2 cell lines; test: Cell Counting Kit-8 (CCK8) cytotoxicity assay; type: cell-based; settings: 293T-ACE2-TMPRSS2 cells
Protocol: Cell viability was performed in a 96-well plate with triplicate for each concentration. All compounds were diluted two times with nine gradients starting at 200, 250. or 500 micromoles in maintenance medium. After 48 h incubation, the supernatant was removed, and 10 μL WST-8 (2-(2-methoxy-4-nitrophenyl)-3-(4-nitrophenyl)-5-(2,4-disulfophenyl)-2H-tetrazolium sodium salt) in maintenance medium was added to the cells. After incubation at 37 °C for 2 h, the plates were measured at 450 nm using a spectrophotometer (BioTek), and cell viability was calculated. All compounds were diluted with maintenance medium containing 2%FBS of DMEM.

Human Caspase 3 = Human Caspase 3 (Homo sapiens, UniProt P42574); test: Protease panel, caspase 3 inhibition; type: biochemical; settings: at a concentration of 20 μM; read-out: Inhibition rate, Human Caspase 3
Human Caspase 3, sequence (P42574 29-175 limits assumed): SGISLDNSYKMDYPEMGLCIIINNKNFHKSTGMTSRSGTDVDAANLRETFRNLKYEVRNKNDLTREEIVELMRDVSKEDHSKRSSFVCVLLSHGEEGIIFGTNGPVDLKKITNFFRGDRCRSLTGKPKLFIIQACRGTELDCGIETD
Human Caspase 3, sequence (P42574 176-277 limits assumed): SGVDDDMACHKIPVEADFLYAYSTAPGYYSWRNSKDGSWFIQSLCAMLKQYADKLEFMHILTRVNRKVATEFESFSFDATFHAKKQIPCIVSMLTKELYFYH

C57BL/6 mice = test: In vivo acute toxicity study in mice; settings: oral, 1000 mg/kg/day and 2000 mg/kg/day; for Acute toxicity study, organs and tissues damage: at the end of observation; for Acute toxicity study, overall result: twice daily, observed 12 days
Protocol: C57BL/6 mice (aged 6–8 weeks, 16–25 g) consisting of half male and half female were used to assess toxicity of compounds 14a and 14b in vivo. Compounds, vehicle, dosage, and administration schemes are shown in Supplementary Table S6. In short, mice were treated with compounds 14a and 14b at the indicated doses by oral gavage and the mice were clinically observed for 12 days after administration, including body weights, food consumption, and general status. At the end of the studies, the mice were anesthetized by Zoletil 50, and the organ and tissue samples were observed by naked eyes.

[4] = system: vesicular stomatitis virus G glycoprotein (VSV-G) mediated entry; type: cell-based
SARS-CoV PsV = test: microbe, parasite or virus in culture; type: cell-based; settings: Severe acute respiratory syndrome coronavirus, Huh-7, read-out: EC50, SARS-CoV PsV
Human TMPRSS2 = Human TMPRSS2 (Homo sapiens, UniProt O15393); test: Protease panel, TMPRSS2 inhibition; type: biochemical; settings: at a concentration of 10 μM; for inhibition at 10 µM: read-out: Inhibition rate, Human TMPRSS2
Human TMPRSS2, sequence (O15393 whole entry): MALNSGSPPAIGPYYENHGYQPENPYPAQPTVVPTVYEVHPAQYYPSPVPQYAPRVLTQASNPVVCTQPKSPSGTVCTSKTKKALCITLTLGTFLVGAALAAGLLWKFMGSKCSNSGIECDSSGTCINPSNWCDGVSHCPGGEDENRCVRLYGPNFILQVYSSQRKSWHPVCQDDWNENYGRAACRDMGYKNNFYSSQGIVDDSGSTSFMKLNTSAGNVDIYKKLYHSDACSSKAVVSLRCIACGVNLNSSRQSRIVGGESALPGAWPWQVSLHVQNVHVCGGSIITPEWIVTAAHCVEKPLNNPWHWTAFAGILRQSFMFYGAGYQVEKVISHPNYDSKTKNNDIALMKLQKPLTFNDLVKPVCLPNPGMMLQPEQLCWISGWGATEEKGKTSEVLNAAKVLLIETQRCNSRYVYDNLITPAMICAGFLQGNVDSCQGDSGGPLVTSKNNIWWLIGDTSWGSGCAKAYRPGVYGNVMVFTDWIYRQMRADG
Protocol: Enzymatic activity and inhibition assays of both compounds against the remaining proteases in Supplementary Table S2 were measured by a commercial company.

Compound	EC50 (B.1.617.2 (Delta) [1])	EC50 (SARS-CoV-2)	EC50 (HCoV-229E)	EC50 (B.1.617.2 (Delta) [2])	EC50 (B.1.351 (Beta))	EC50 (SARS-CoV-2 PsV)	Vss_obs (Pharmacokinetics in dogs; i.v. (1 mg/kg))	AUC(0-t) (Pharmacokinetics in dogs; iv, i.v. (1 mg/kg))	clearance (Pharmacokinetics in dogs; iv, i.v. (1 mg/kg))	half-life (Pharmacokinetics in dogs; iv, i.v. (1 mg/kg))	AUC(0-inf) (Pharmacokinetics in dogs; iv, i.v. (1 mg/kg))	MRT inf (Pharmacokinetics in dogs; iv, i.v. (1 mg/kg))	AUC(0-t) (Pharmacokinetics in dogs; po, p.o. (5 mg/kg))	Cmax (Pharmacokinetics in dogs; po, p.o. (5 mg/kg))	Tmax (Pharmacokinetics in dogs; po, p.o. (5 mg/kg))	bioavailability (Pharmacokinetics in dogs; po, p.o. (5 mg/kg))	half-life (Pharmacokinetics in dogs; po, p.o. (5 mg/kg))	AUC(0-inf) (Pharmacokinetics in dogs; po, p.o. (5 mg/kg))	MRT inf (Pharmacokinetics in dogs; po, p.o. (5 mg/kg))	AUC(0-t) (Pharmacokinetics in dogs; sc, s.c. (1 mg/kg))	also measured
O=C(NCc1ccccc1)C(=O)[C@H](C[C@@H]1CCCNC1=O)NC(=O)[C@H](Cc1ccc(F)cc1)NC(=O)c1cc2ccccc2o1 [14a, N-((S)-1-(((S)-4-(benzylamino)-3,4-dioxo-1-((S)-2-oxopiperidin-3-yl)butan-2-yl)amino)-3-(4-fluorophenyl)-1-oxopropan-2-yl)benzofuran-2-carboxamide]	0.8 ± 0.16 nM	51.7 ± 10.8 nM	19 ± 4.17 nM	11 ± 1.8 nM	162 ± 5.3 nM	3.33 ± 1.9 nM	1050 mL/kg	732 ng·h/mL	24.4 mL/min/kg	62.4 min	735 ng·h/mL	0.74 h	351 ng·h/mL	154 ng/mL	45 min	10%	79.8 min	357 ng·h/mL	1.86 h	881 ng·h/mL	Cmax (Pharmacokinetics in dogs; sc, s.c. (1 mg/kg)): 116 ng/mL; Tmax (Pharmacokinetics in dogs; sc, s.c. (1 mg/kg)): 30 min; bioavailability (Pharmacokinetics in dogs; sc, s.c. (1 mg/kg)): 120%; half-life (Pharmacokinetics in dogs; sc, s.c. (1 mg/kg)): 238 min; AUC(0-inf) (Pharmacokinetics in dogs; sc, s.c. (1 mg/kg)): 893 ng·h/mL; MRT inf (Pharmacokinetics in dogs; sc, s.c. (1 mg/kg)): 5.14 h; Cytotoxicity [3]: very low or no cytotoxicity; inhibition (Human Caspase 3): 25 ± 2%; Acute toxicity study, abnormalities in body weights, food mean daily consumption and general status (C57BL/6 mice): No abnormalities; Acute toxicity study, mortality (C57BL/6 mice): No mice died; Acute toxicity study, organs and tissues damage (C57BL/6 mice): No obvious organs and tissues damage; Acute toxicity study, overall result (C57BL/6 mice): No obvious toxicity; Inhibitory activity on VSV-G mediated entry [4]: no inhibitory activity; EC50 (SARS-CoV PsV): 8.24 ± 2.98 nM; Inhibitory activity against TMPRSS2 (in words) (Human TMPRSS2): did not exhibit inhibitory activity; inhibition at 10 µM (Human TMPRSS2): -1 ± 1%
O=C(NCc1ccccc1)C(=O)[C@H](C[C@@H]1CCCNC1=O)NC(=O)[C@H](CC1CCCCC1)NC(=O)c1cc2ccccc2o1 [14b, N-((S)-1-(((S)-4-(benzylamino)-3,4-dioxo-1-((S)-2-oxopiperidin-3-yl)butan-2-yl)amino)-3-cyclohexyl-1-oxopropan-2-yl)benzofuran-2-carboxamide]	0.84 ± 0.13 nM	< 40 nM	20.6 ± 8.19 nM	28.6 ± 3.79 nM	58.1 ± 1.07 nM	0.61 ± 0.06 nM	1590 ± 557 mL/kg	544 ± 148 ng·h/mL	31.9 ± 7.8 mL/min/kg	64.2 ± 17.4 min	546 ± 148 ng·h/mL	0.82 ± 0.11 h	271 ± 166 ng·h/mL	235 ± 173 ng/mL	34.8 ± 22.8 min	10%	120 ± 51 min	283 ng·h/mL	2.19 ± 0.86 h	948 ± 46 ng·h/mL	Cmax (Pharmacokinetics in dogs; sc, s.c. (1 mg/kg)): 151 ± 36 ng/mL; Tmax (Pharmacokinetics in dogs; sc, s.c. (1 mg/kg)): 125 ± 113 min; bioavailability (Pharmacokinetics in dogs; sc, s.c. (1 mg/kg)): 178%; half-life (Pharmacokinetics in dogs; sc, s.c. (1 mg/kg)): 191 ± 94.2 min; AUC(0-inf) (Pharmacokinetics in dogs; sc, s.c. (1 mg/kg)): 973 ± 54 ng·h/mL; MRT inf (Pharmacokinetics in dogs; sc, s.c. (1 mg/kg)): 4.69 ± 1.25 h; Cytotoxicity [3]: very low or no cytotoxicity; inhibition (Human Caspase 3): 39 ± 2%; Acute toxicity study, abnormalities in body weights, food mean daily consumption and general status (C57BL/6 mice): No abnormalities; Acute toxicity study, mortality (C57BL/6 mice): No mice died; Acute toxicity study, organs and tissues damage (C57BL/6 mice): No obvious organs and tissues damage; Acute toxicity study, overall result (C57BL/6 mice): No obvious toxicity; Inhibitory activity on VSV-G mediated entry [4]: no inhibitory activity; EC50 (SARS-CoV PsV): 10.1 ± 7.77 nM; Inhibitory activity against TMPRSS2 (in words) (Human TMPRSS2): did not exhibit inhibitory activity; inhibition at 10 µM (Human TMPRSS2): 3 ± 1%
